Measurements from ChEMBL document CHEMBL5096195, “Recent research and development of NDM-1 inhibitors” (Eur J Med Chem, 2021).
In brackets after ≈: the same amount, converted by molar mass. Where a SMILES comes first, the peptide text is derived from it. [ ]: non-standard residue; d: D form. The star is where a group is joined. NODAGA = O=C(O)CN1CCN(CC(=O)O)CCN(C(CCC(=O)*)C(=O)O)CC1; NMeA = CN[CH](C)C(=O)O

Experiments:
[1] = tested on: Klebsiella pneumoniae; assay: Synergistic antibacterial activity against carbapenem-resistant Klebsiella pneumoniae expressing NDM-1 measured after 18 hrs in the presence of meropenem; format: functional
[2] = tested on: Escherichia coli; assay: Antibacterial activity against Escherichia coli measured after 18 hrs; format: functional
[3] = Inhibition of NDM-1 (unknown origin) measured after 10 mins; set-up: species or system Homo sapiens
[4] = Inhibition of NDM-1 (unknown origin) expressed in Escherichia coli; set-up: species or system Homo sapiens
[5] = Binding affinity to NDM-1 (unknown origin) assessed as inhibition constant using cefazolin as substrate incubated for 5 mins measured for every 1 sec by isothermal titration calorimetric analysis; set-up: species or system Homo sapiens
[6] = tested on: L929; assay: Cytotoxicity against mouse L929 cells at 250 uM incubated for 48 hrs by MTT assay relative to control; format: toxicity, cell-based; conditions: l929, 48 h
[7] = Inhibition of NDM-1 (unknown origin) by HPLC analysis; set-up: species or system Homo sapiens
[8] = Oral bioavailability in BALB/c mouse relative to control; format: ADME, organism-based; conditions: in vivo
[9] = Inhibition of NDM-1 (unknown origin) by using nitrocefin as substrate preincubated for 10 min followed by nitrocefin addition incubated after 30 min; set-up: species or system Homo sapiens
[10] = Inhibition of NDM-1 (unknown origin); set-up: species or system Homo sapiens
[11] = tested on: Escherichia coli; assay: Antibacterial activity against Escherichia coli expressing NDM-1 assessed as decrease in meropenem MIC at 4 mg/L incubated for 18 to 20 hrs by broth microdilution method; format: functional; conditions: time 18-20 hrs
[12] = Inhibition of NDM-1 (unknown origin) using cefuroxime sodium as substrate incubated for 5 mins by UV-1800 spectrophotometric analysis; set-up: species or system Homo sapiens
[13] = Inhibition of NDM-1 (unknown origin) using cefazolin as substrate incubated for 12 hrs by Agilent UV8453 UV-Vis spectrometric analysis; set-up: species or system Homo sapiens
[14] = Binding affinity to NDM-1 (unknown origin) assessed as kinetic constant using cefazolin as substrate preincubated for 60 sec followed by cefazolin addition after 60 sec by isothermal titration calorimetric assay; set-up: species or system Homo sapiens
[15] = organism: Homo sapiens; assay: Inhibition of NDM-1 (unknown origin) at 16 uM using cefazolin as substrate incubated for 12 hrs by Agilent UV8453 UV-Vis spectrometric analysis relative to control
[16] = Inhibition of NDM-1 (unknown origin) using meropenem as substrate incubated for 10 mins; set-up: species or system Homo sapiens
[17] = Binding affinity to NDM-1 (unknown origin) assessed as inhibition constant using meropenem as substrate incubated for 10 mins; set-up: species or system Homo sapiens
[18] = Inhibition of NDM-1 (unknown origin) expressed in Escherichia coli Zc-YN3
[19] = Inhibition of NDM-1 (unknown origin) using nitrocefin as substrate; set-up: species or system Homo sapiens
[20] = tested on: Citrobacter freundii; assay: Antibacterial activity against Citrobacter freundii expressing NDM-1 assessed as decrease in meropenem MIC at 8 mg/L incubated for 18 to 20 hrs by broth microdilution method; format: functional; conditions: time 18-20 hrs
[21] = tested on: Citrobacter freundii; assay: Antibacterial activity against Citrobacter freundii expressing NDM-1 assessed as decrease in meropenem MIC at 4 mg/L incubated for 18 to 20 hrs by broth microdilution method; format: functional; conditions: time 18-20 hrs
[22] = tested on: Escherichia coli; assay: Synergistic antibacterial activity against Escherichia coli BL21 (DE3) expressing NDM-1 incubated for 12 hrs in the presence of cefuroxime sodium by two-fold checkerboard microdilution method; format: functional

O=C1N(Cc2cccc3ccccc23)c2ccccc2C12NN=C(c1ccccc1)S2 (configuration not stated)
MIC [1]: 2 µM
MIC [2]: 4 µM (≈ 1.69 µg/mL)
IC50 [3]: 6.6 µM

CC1(C)S[C@H]2CS[C@H](CS)N2[C@@H]1C(=O)O
IC50 [4]: 200 µM

O=C(NNC(=S)S)c1ccccc1O
Ki [5]: 0.29 µM

O=C(NNC(=S)[S][K])c1ccccc1O
Activity [6]: > 80%

O=C(O)[C@H]1O[C@@H](Oc2cc3oc(-c4ccccc4)cc(=O)c3c(O)c2O)[C@H](O)[C@@H](O)[C@@H]1O [BAICALIN]
IC50 [7]: 3.89 µM

COc1cc(/C=C/c2ccc(O)cc2)cc(OC)c1 [PTEROSTILBENE]
bioavailability [8]: 80%
IC50 [9]: 15.37 µg/mL (≈ 60 µM)

O=C(O)CN(CCN(CC(=O)O)CC(=O)O)CC(=O)O [EDETIC ACID]
IC50 [10]: 1.6 µM

CC1(C)S[C@@H]2CS[C@@H](CS)N2[C@H]1C(=O)O
IC50 [4]: 180 µM

CC(C(=O)NC(Cc1ccccc1)C(=O)N(C)C(C)C(=O)NC(Cc1ccccc1)C(N)=O)N(C)C(=O)CCC(C(=O)O)N1CCN(CC(=O)O)CCN(CC(=O)O)CC1 (configuration not stated) ({NODAGA}-[NMeA]F[NMeA]F-NH2; configuration not given here)
MIC [11]: 0.125 µg/mL

COc1ccc([C@@H]2CC(=O)c3c(O)cc(O[C@@H]4O[C@H](CO[C@@H]5O[C@@H](C)[C@H](O)[C@@H](O)[C@H]5O)[C@@H](O)[C@H](O)[C@H]4O)cc3O2)cc1O [HESPERIDIN]
IC50 [12]: 3.35 µM

O=C(O)C(=O)CBr [BROMOPYRUVATE]
IC50 [13]: 2.57 µM
Ki [14]: 3.8 µM
inhibition [15]: > 90%

CCCCCCCCCCCC1=C(O)C(=O)C=C(O)C1=O [EMBELIN]
IC50 [16]: 2.1 µM
Ki [17]: 0.19 µM

O=C(O)[C@H]1SC[C@@H]2CS[C@@H](CS)N21
IC50 [4]: 109 µM

C=CCc1ccc(O)c(-c2cc(CC=C)ccc2O)c1 [MAGNOLOL]
IC50 [18]: 6.47 µM

COC(=O)C[C@H]1[C@]2(C)C3=C(C)[C@H](c4ccoc4)C[C@H]3O[C@@H]2[C@@H]2OC(=O)[C@]3(C)C=CC(=O)[C@@]1(C)[C@@H]23 [NIMBOLIDE]
IC50 [10]: 1.34 µM

N[C@@H](CN[C@@H](CN[C@@H](CC(=O)O)C(=O)O)C(=O)O)C(=O)O
IC50 [19]: 4 µM

O=C(O)[C@@H]1SC[C@H]2CS[C@H](CS)N21
IC50 [4]: 23 µM

c1ccc(CN(CCN(Cc2ccccn2)Cc2ccccn2)Cc2ccccn2)nc1
MIC [20]: 0.06 µg/mL
MIC [21]: 0.5 µg/mL

CC1(C)S[C@@H]2[C@H](NC(=O)[C@H](N)c3ccccc3)C(=O)N2[C@H]1C(=O)O [AMPICILLIN]
MIC [22]: 32 µM

O=C(O)CN1CCN(CC(=O)O)CCN(CC(=O)O)CC1
MIC [11]: 0.125 µg/mL
